Measured values from patent publication US8183388B2, “Androgen receptor modulator and uses thereof” (Eli Lilly and Company, priority 2009, dated 2012).

Columns and labels:
[1] = biological target: T1, human androgen receptor (AR) (Homo sapiens, UniProt P10275); assay: C2C12 AR/ARE reporter assay; format: cell-based; settings: mouse myoblast C2C12 cells, agonist mode, geometric mean of n=7; SD of about 0.08
T1 construct: expressed in transfected cells; host or cells: mouse myoblast C2C12 cells
T1 sequence (P10275 1-920): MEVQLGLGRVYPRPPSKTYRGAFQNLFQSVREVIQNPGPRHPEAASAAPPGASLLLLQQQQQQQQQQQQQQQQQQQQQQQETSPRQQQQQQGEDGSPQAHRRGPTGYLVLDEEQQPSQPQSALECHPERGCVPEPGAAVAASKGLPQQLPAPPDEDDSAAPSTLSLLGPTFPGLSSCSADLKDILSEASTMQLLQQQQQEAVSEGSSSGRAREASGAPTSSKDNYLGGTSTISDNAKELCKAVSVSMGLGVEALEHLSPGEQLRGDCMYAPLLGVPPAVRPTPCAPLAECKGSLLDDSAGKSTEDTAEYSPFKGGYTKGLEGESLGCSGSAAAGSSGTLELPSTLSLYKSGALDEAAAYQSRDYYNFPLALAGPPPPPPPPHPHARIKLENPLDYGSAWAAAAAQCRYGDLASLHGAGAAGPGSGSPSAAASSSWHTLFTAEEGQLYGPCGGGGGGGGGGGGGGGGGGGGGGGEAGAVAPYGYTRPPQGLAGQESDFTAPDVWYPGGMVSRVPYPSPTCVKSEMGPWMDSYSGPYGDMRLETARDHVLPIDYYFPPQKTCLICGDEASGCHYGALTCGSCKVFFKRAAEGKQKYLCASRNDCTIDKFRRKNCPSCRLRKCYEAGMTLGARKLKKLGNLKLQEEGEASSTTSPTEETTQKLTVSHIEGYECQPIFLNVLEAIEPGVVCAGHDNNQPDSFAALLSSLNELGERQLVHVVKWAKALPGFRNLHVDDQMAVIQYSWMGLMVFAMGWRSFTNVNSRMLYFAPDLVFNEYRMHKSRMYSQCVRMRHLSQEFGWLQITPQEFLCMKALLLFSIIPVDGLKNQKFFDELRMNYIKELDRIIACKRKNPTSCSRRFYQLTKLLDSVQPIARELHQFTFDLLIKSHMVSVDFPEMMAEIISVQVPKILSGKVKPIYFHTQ
Protocol: As an indicator of agonist activity in muscle tissue, the C2C12 AR/ARE reporter assay is performed. Briefly, mouse myoblast C2C12 cells are co-transfected using Fugene™ reagent. A reporter plasmid containing a GRE/ARE (glucocorticoid response element/androgen response element) and TK promoter upstream of the luciferase reporter cDNA, is transfected with a plasmid constitutively expressing human androgen receptor (AR) using viral CMV promoter. Cells are transfected in T150 cm^2 flasks in DMEM media with 4% charcoal stripped Fetal Bovine Serum (FBS). After a 5 hour incubation, transfected cells are trypsinized, plated in 96 well dishes in DMEM media containing 4% charcoal-stripped FBS, incubated for 2 h and then exposed to various concentrations of test compounds ranging from about 0.01 nM to 10 μM. […] Data is fit to a 4 parameter-fit logistics to determine EC50 values. The % efficacy is determined versus maximum stimulation obtained with 10 nM methyltrienolone.

[2] = test system: castrated (GDX) male Sprague Dawley rats; assay: In vivo model of efficacy and selectivity (castrated rats, tissue wet weights); settings: for mean normalized LA wet weight value / mean normalized bulbocavernous wet weight value / mean normalized prostate wet weight value: two week treatment, n=6, wet weight divided by body weight
Protocol: Eight week old male Sprague Dawley rats are castrated (gonadectomized or “GDX”) according to approved procedures and allowed to waste for eight weeks. Age-matched sham-operated […] are also prepared. Animals are housed in a temperature-controlled room (24° C.) with a reversed 12 hour light/dark cycle and water and food are available ad libitum.
Animals are randomized based on body weight prior to ascribing a test slot. Test compound in vehicle, or vehicle alone, is administered daily by subcutaneous injection to the castrated 16 week old rats (body weight about 380-400 g) using a conventional vehicle such as 5% DMSO/95% soybean oil. Sham operated rats treated with vehicle alone are used as a treatment positive controls, whereas the castrated rats treated only with vehicle are used as treatment negative control. A separate cohort of castrated animals are treated with testosterone as a comparator.
Test animals are dosed daily over a two or eight week timeframe with, for example, 0.1, 0.3, or 1.0 mg/kg per day of the compound of the present invention, or weekly with 10 mg/kg per week of testosterone (sesame oil vehicle) After the treatment period the animals are sacrificed and the wet weight of the levator ani (LA) muscle, the prostate and the bulbocavernous muscle from each animal is determined (after weighing, the bulbocavernous muscle may be flash frozen in liquid nitrogen for later use in measuring neuronal nitric oxide synthase mRNA, as described below). The wet weights are then normalized by dividing each individual wet weight by the body weight of the corresponding animal at the end of the study. The normalized values from the treatment animals are then compared to the normalized values from the castrated, vehicle-only control group or the sham group. As an indicator of tissue selective activity, the wet weight of the prostate from test animals may be similarly compared to the wet weight of the prostate from the control groups or the testosterone-treated comparator group.

Compound: CC(C)OC(=O)N[C@H]1Cc2c(n(C[C@H]3OCC[C@@H]3O)c3ccc(C#N)cc23)C1 [compound of Formula (I), [(S)-7-Cyano-4-((2R,3S)-3-hydroxytetrahydrofuran-2-ylmethyl)-1,2,3,4-tetrahydrocyclopenta[b]indol-2-yl]-carbamic acid isopropyl ester]
- EC50 [1]: ~0.2 nM
- mean normalized LA wet weight value ([2]; 0.1 mg/kg per day s.c.): about 0.44
- mean normalized bulbocavernous wet weight value ([2]; 0.1 mg/kg per day s.c.): about 0.77
- mean normalized prostate wet weight value ([2]; 0.1 mg/kg per day s.c.): about 0.04
- mean normalized LA wet weight value ([2]; 0.3 mg/kg per day s.c.): about 0.57
- mean normalized bulbocavernous wet weight value ([2]; 0.3 mg/kg per day s.c.): about 1.29
- mean normalized prostate wet weight value ([2]; 0.3 mg/kg per day s.c.): about 0.14
- mean normalized LA wet weight value ([2]; 1.0 mg/kg per day s.c.): about 0.68
- mean normalized bulbocavernous wet weight value ([2]; 1.0 mg/kg per day s.c.): about 1.41
- mean normalized prostate wet weight value ([2]; 1.0 mg/kg per day s.c.): about 0.52
- levator ani and bulbocavernous muscle weights in comparison to the castrated control group ([2]; 0.1-1.0 mg/kg per day s.c., two weeks): dose dependent increase
- effect on prostate weight when compared to Sham control and testosterone treated animals ([2]; two weeks, tissue selectivity): decreased effect
